Experimental data taken from paper PMC9454848, “BMS-986158, a Small Molecule Inhibitor of the Bromodomain and Extraterminal Domain Proteins, in Patients with Selected Advanced Solid Tumors: Results from a Phase 1/2a Trial” (Cancers, 2022).
“Also recorded” adds a separate entry of the source. Like-named read-outs stand apart in the source and are kept apart here.

Experiments:
[1] = Plasma pharmacokinetics after single dose (C1D1), LC-MS/MS; type: in vivo, human; conditions: human, plasma, oral, read-out: Mean T1/2, range across doses
Method: (§1) At C1D1 in every dosing schedule cohort, a single dose was administered followed by 168 h (i.e., 7 days) of intensive PK sampling. Following cycle 1, the multiple-dose treatment schedules (described above) began in cycle 2. PK parameters were derived following single dose combined across all schedules and multiple doses at cycle 2 for each schedule. […] PK assessments were evaluated for BMS-986158 and its metabolite using plasma samples at regular intervals. Both the parent and metabolite samples were simultaneously analyzed using a validated liquid chromatography and tandem mass spectrometry assay.
(§2) All treated patients who received ≥1 dose of BMS-986158 were evaluated in the safety population. […] All treated patients with available and sufficient serum or plasma samples for the corresponding analytes were included in the PK analyses. […] ECG parameters were evaluated in a categorical analysis, and linear mixed-effects regression modeling was used to describe the quantitative relationship between ΔQTcF and time-matched serum concentrations of BMS-986158 or its metabolite at a single dose.

[2] = Plasma pharmacokinetics after multiple doses (cycle 2, steady state), LC-MS/MS; type: in vivo, human; conditions: for AUC(0-t) / half-life / Tmax / Cmax: human, plasma, oral
Method: as §1, §2

Q: Which results are given for `Cc1nnn(C)c1-c1cnc2c3ccc(C(C)(C)O)cc3n([C@H](c3ccccc3)C3CCOCC3)c2c1` [BMS-986158]?
A: half-life [1]: 34 to 54 h; CL/F at steady state, geometric mean, range across doses ([2]; Schedule A): 4.60 to 5.41 mL/min; CL/F at steady state, geometric mean, range across doses ([2]; Schedule B): 3.76 to 9.72 mL/min; CL/F at steady state, geometric mean, range across doses ([2]; Schedule C): 3.89 to 6.65 mL/min; AUC(0-t) ([2]; 0.75 mg, multiple dose, steady state, Schedule A (5 days on, 2 days off), 0.75 mg, n = 3, read-out: AUC(0–24), GM (%CV)): 2720 ng·h/mL; half-life ([2]; 0.75 mg, multiple dose, steady state, Schedule A (5 days on, 2 days off), 0.75 mg, n = 3, read-out: Effective T1/2, mean (SD) (converted)): 36 h; AUC(0-t) ([2]; 0.75 mg, multiple dose, steady state, Schedule A (5 days on, 2 days off), 0.75 mg, n = 4, read-out: AUC(0–T), GM (%CV)): 3450 ng·h/mL; Tmax ([2]; 0.75 mg, multiple dose, steady state, Schedule A (5 days on, 2 days off), 0.75 mg, n = 4, read-out: Tmax, median (range)): 3.14 h; Cmax ([2]; 0.75 mg, multiple dose, steady state, Schedule A (5 days on, 2 days off), n = 4): 136 ng/mL; AUC(0-t) ([2]; 1.25 mg, multiple dose, steady state, Schedule A (5 days on, 2 days off), 1.25 mg, n = 1, read-out: AUC(0–24), GM (%CV)): 3850 ng·h/mL; AUC(0-t) ([2]; 1.25 mg, multiple dose, steady state, Schedule A (5 days on, 2 days off), 1.25 mg, n = 4, read-out: AUC(0–T), GM (%CV)): 4960 ng·h/mL; Tmax ([2]; 1.25 mg, multiple dose, steady state, Schedule A (5 days on, 2 days off), 1.25 mg, n = 4, read-out: Tmax, median (range)): 1.5 h; Cmax ([2]; 1.25 mg, multiple dose, steady state, Schedule A (5 days on, 2 days off), n = 4): 284 ng/mL; AUC(0-t) ([2]; 2 mg, multiple dose, steady state, Schedule A (5 days on, 2 days off), 2.0 mg, n = 7, read-out: AUC(0–T), GM (%CV)): 7610 ng·h/mL; Tmax ([2]; 2 mg, multiple dose, steady state, Schedule A (5 days on, 2 days off), 2.0 mg, n = 7, read-out: Tmax, median (range)): 2 h; Cmax ([2]; 2 mg, multiple dose, steady state, Schedule A (5 days on, 2 days off), n = 7): 442 ng/mL; AUC(0-t) ([2]; 2 mg, multiple dose, steady state, Schedule B (14 days on, 7 days off), 2.0 mg, n = 1, read-out: AUC(0–24), GM (%CV)): 3430 ng·h/mL; AUC(0-t) ([2]; 2 mg, multiple dose, steady state, Schedule B (14 days on, 7 days off), 2.0 mg, n = 1, read-out: AUC(0–T), GM (%CV)): 6320 ng·h/mL; half-life ([2]; 2 mg, multiple dose, steady state, Schedule B (14 days on, 7 days off), 2.0 mg, n = 1, read-out: Effective T1/2, mean (SD) (converted)): 14.4 h; Tmax ([2]; 2 mg, multiple dose, steady state, Schedule B (14 days on, 7 days off), 2.0 mg, n = 1, read-out: Tmax, median (range)): 1 h; Cmax ([2]; 2 mg, multiple dose, steady state, Schedule B (14 days on, 7 days off), n = 1): 279 ng/mL; AUC(0-t) ([2]; 2 mg, multiple dose, steady state, Schedule C (7 days on, 14 days off), 2.0 mg, n = 5, read-out: AUC(0–24), GM (%CV)): 8560 ng·h/mL; AUC(0-t) ([2]; 2 mg, multiple dose, steady state, Schedule C (7 days on, 14 days off), 2.0 mg, n = 5, read-out: AUC(0–T), GM (%CV)): 19900 ng·h/mL; half-life ([2]; 2 mg, multiple dose, steady state, Schedule C (7 days on, 14 days off), 2.0 mg, n = 5, read-out: Effective T1/2, mean (SD) (converted)): 31.6 h; Tmax ([2]; 2 mg, multiple dose, steady state, Schedule C (7 days on, 14 days off), 2.0 mg, n = 5, read-out: Tmax, median (range)): 1 h; Cmax ([2]; 2 mg, multiple dose, steady state, Schedule C (7 days on, 14 days off), n = 5): 520 ng/mL; AUC(0-t) ([2]; 3 mg, multiple dose, steady state, Schedule A (5 days on, 2 days off), 3.0 mg, n = 7, read-out: AUC(0–24), GM (%CV)): 9820 ng·h/mL; half-life ([2]; 3 mg, multiple dose, steady state, Schedule A (5 days on, 2 days off), 3.0 mg, n = 7, read-out: Effective T1/2, mean (SD) (converted)): 25.7 h; AUC(0-t) ([2]; 3 mg, multiple dose, steady state, Schedule A (5 days on, 2 days off), 3.0 mg, n = 8, read-out: AUC(0–T), GM (%CV)): 13400 ng·h/mL; Tmax ([2]; 3 mg, multiple dose, steady state, Schedule A (5 days on, 2 days off), 3.0 mg, n = 8, read-out: Tmax, median (range)): 2.01 h; Cmax ([2]; 3 mg, multiple dose, steady state, Schedule A (5 days on, 2 days off), n = 8): 624 ng/mL; AUC(0-t) ([2]; 3 mg, multiple dose, steady state, Schedule B (14 days on, 7 days off), 3.0 mg, n = 1, read-out: AUC(0–24), GM (%CV)): 13300 ng·h/mL; AUC(0-t) ([2]; 3 mg, multiple dose, steady state, Schedule B (14 days on, 7 days off), 3.0 mg, n = 1, read-out: AUC(0–T), GM (%CV)): 34000 ng·h/mL; half-life ([2]; 3 mg, multiple dose, steady state, Schedule B (14 days on, 7 days off), 3.0 mg, n = 1, read-out: Effective T1/2, mean (SD) (converted)): 37.3 h; Tmax ([2]; 3 mg, multiple dose, steady state, Schedule B (14 days on, 7 days off), 3.0 mg, n = 1, read-out: Tmax, median (range)): 1 h; Cmax ([2]; 3 mg, multiple dose, steady state, Schedule B (14 days on, 7 days off), n = 1): 855 ng/mL; half-life ([2]; 3 mg, multiple dose, steady state, Schedule C (7 days on, 14 days off), 3.0 mg, n = 7, read-out: Effective T1/2, mean (SD) (converted)): 27.3 h; AUC(0-t) ([2]; 3 mg, multiple dose, steady state, Schedule C (7 days on, 14 days off), 3.0 mg, n = 8, read-out: AUC(0–24), GM (%CV)): 8640 ng·h/mL; AUC(0-t) ([2]; 3 mg, multiple dose, steady state, Schedule C (7 days on, 14 days off), 3.0 mg, n = 8, read-out: AUC(0–T), GM (%CV)): 18300 ng·h/mL; Tmax ([2]; 3 mg, multiple dose, steady state, Schedule C (7 days on, 14 days off), 3.0 mg, n = 8, read-out: Tmax, median (range)): 1.66 h; Cmax ([2]; 3 mg, multiple dose, steady state, Schedule C (7 days on, 14 days off), n = 8): 588 ng/mL; AUC(0-t) ([2]; 4.5 mg, multiple dose, steady state, Schedule A (5 days on, 2 days off), 4.5 mg, n = 8, read-out: AUC(0–24), GM (%CV)): 14600 ng·h/mL; AUC(0-t) ([2]; 4.5 mg, multiple dose, steady state, Schedule A (5 days on, 2 days off), 4.5 mg, n = 8, read-out: AUC(0–T), GM (%CV)): 29500 ng·h/mL; half-life ([2]; 4.5 mg, multiple dose, steady state, Schedule A (5 days on, 2 days off), 4.5 mg, n = 8, read-out: Effective T1/2, mean (SD) (converted)): 27.3 h; Tmax ([2]; 4.5 mg, multiple dose, steady state, Schedule A (5 days on, 2 days off), 4.5 mg, n = 8, read-out: Tmax, median (range)): 2 h; Cmax ([2]; 4.5 mg, multiple dose, steady state, Schedule A (5 days on, 2 days off), n = 8): 898 ng/mL; half-life ([2]; 4.5 mg, multiple dose, steady state, Schedule C (7 days on, 14 days off), 4.5 mg, n = 5, read-out: Effective T1/2, mean (SD) (converted)): 27.6 h; AUC(0-t) ([2]; 4.5 mg, multiple dose, steady state, Schedule C (7 days on, 14 days off), 4.5 mg, n = 7, read-out: AUC(0–24), GM (%CV)): 11300 ng·h/mL; AUC(0-t) ([2]; 4.5 mg, multiple dose, steady state, Schedule C (7 days on, 14 days off), 4.5 mg, n = 7, read-out: AUC(0–T), GM (%CV)): 20000 ng·h/mL; Tmax ([2]; 4.5 mg, multiple dose, steady state, Schedule C (7 days on, 14 days off), 4.5 mg, n = 7, read-out: Tmax, median (range)): 2 h; Cmax ([2]; 4.5 mg, multiple dose, steady state, Schedule C (7 days on, 14 days off), n = 7): 901 ng/mL; half-life ([2]; multiple dose, Schedule A, read-out: Mean effective T1/2, range): 25.7 to 36 h; half-life ([2]; multiple dose, Schedule B, read-out: Mean effective T1/2, range): 14.4 to 37.3 h; half-life ([2]; multiple dose, Schedule C, read-out: Mean effective T1/2, range): 27.3 to 31.6 h; AUC(0-t) ([2]; multiple doses, Schedule A, 0.75–4.5-mg doses, read-out: Geometric mean AUC(0–T), range): 3450 to 29500 ng·h/mL; AUC(0-t) ([2]; multiple doses, Schedule A, read-out: AUC(0–24), range): 2720 to 14600 ng·h/mL; AUC(0-t) ([2]; multiple doses, Schedule B, 2.0–3.0-mg dose groups, read-out: Geometric mean AUC(0–T), range): 6320 to 34000 ng·h/mL; AUC(0-t) ([2]; multiple doses, Schedule B, read-out: AUC(0–24), range): 3430 to 13300 ng·h/mL; AUC(0-t) ([2]; multiple doses, Schedule C, 2.0–4.5 mg, read-out: Geometric mean AUC(0–T), range): 18300 to 20000 ng·h/mL; AUC(0-t) ([2]; multiple doses, Schedule C, read-out: AUC(0–24), range): 8560 to 11300 ng·h/mL; Tmax ([2]; multiple-dose administration, read-out: Tmax, range across all doses and schedules): 1 to 3.14 h; Dose proportionality of PK profile ([2]; multiple-dose administration, Schedule A): approximately dose proportional; also recorded: dose-proportional PK profile; Dose proportionality of PK profile ([2]; multiple-dose administration, Schedule C): less than dose proportional
